Laboratory results as given in patent US8569265B2, “Deuterated analogs of (4S)-4-ethyl-4-hydroxy-11-[2- (trimethylsilyl)ethyl]-1H-pyrano[3′, 4′:6,7] indolizino [1,2-b]quinoline-3,14(4H, 12H)-dione and methods of use thereof” (BioNumerik Pharmaceuticals, Inc., priority 2011, dated 2013).
Read-outs that look alike come from different tables or passages of the source.

Assays:
[1] = test system: wild-type human ovarian cancer cells (A2780/WT); assay: Sulforhodamine B (SRB) cytotoxicity assay, A2780/WT; format: cell-based; settings: for IC50: Homo sapiens, A2780/WT, 2 hour drug treatments; for IC50 values in words (inhibition of cell growth): wild-type (A2780/WT) ovarian cancer cells
From the text: (§1) The sulforhodamine B (SRB) assay was used to assess cytotoxicity and absorbance at 570 nm (A570) in order to calculate the percentage of cell control (or percent cell survival) for wild-type human ovarian cancer cells (A2780/WT) and doxorubicin-resistant human ovarian cancer cells (A2780/DX5) treated with BNP1350, BNP10120 (a di-deuterated analog of BNP1350) and BNP10121 (a tetra-deuterated analog of BNP1350).
(§2) Roswell Park Memorial Institute (RPMI 1640) medium, fetal bovine serum (FBS), and L-glutamine were purchased from Gibco BRL. Drugs were dissolved in sterile dimethylsulfoxide (DMSO), from American Type Culture Collection (ATCC) for stock solutions (2.5 to 5.0 mM). Subsequent dilutions were made using cell culture medium (prior to adding the drug to cells). SRB was purchased from Sigma and dissolved in 1.0 percent acetic acid. Trichloroacetic acid was purchased from VWR International. BNP1350, BNP10120 (a di-deuterated analog of BNP1350) and BNP10121 (a tetra-deuterated analog of BNP1350) were synthesized and purified by BioNumerik Pharmaceuticals, Inc.
(§3) Cells were manipulated in a Class IIA/B3 Biological Safety Cabinet (Forma Scientific) and maintained at 37° C. in a humidified atmosphere containing 5% CO2 in a water-jacketed cell culture incubator (Forma Scientific). Cells were counted using a Coulter-Z1 counter (Beckman-Coulter). Following drug treatment, plates were washed using a Biomek 2000 station (Beckman) and, following exposure to SRB dye, plates were washed using an automated plate washer (Model EL404, Bio-Tek Instruments). Percentage of control was correlated to A570 values and determined using a Model EL800 plate reader (Bio-Tek Instruments).
(§4) Wild-type human ovarian cancer cells (A2780/WT) and doxorubicin-resistant human ovarian cancer cells (A2780/DX5) were cultured in RPMI 1640 medium supplemented with 10% fetal bovine serum and 2 mM L-glutamine, and grown in a 37° C. incubator with 5% CO2. Population doubling times for the two cell lines used in this study encompassed a total of five cell doublings corresponding to approximately 5 days for A2780/WT and A2780/DX5 cells. Both cell lines were maintained as monolayered cultures in T-25 or T-75 flasks and then seeded to microtiter plate wells for experiments described herein.
(§5) In brief, cells were seeded (500 cells/well in 100 μL total volume) into 96-well microtiter plates and allowed to attach for 24 hours prior to treatment with BNP1350, BNP10120 or BNP10121 for 2 hours. The aforementioned compounds were dissolved in DMSO for use in cytotoxicity experiments where inhibition of cell growth was measured using the SRB assay.
(§6) Following this 2 hour drug treatment, the BNP1350, BNP10120 and BNP10121 were removed, cells were washed with drug-free media (200 μL) and then drug-free media (200 μL) was added to the cells and cells were allowed to continue growing at 37° C. with 5% CO2 before the SRB assay was performed (total experiment time from time of seeding was 5 days, during which time a total of 5 cell doublings had occurred).
(§7) Prior to SRB assays, cell viability was monitored by evaluation of microtiter plate wells. Dead cells detach and float while living cells remain attached to the bottom of the cell well.
(§8) The sulforhodamine B (SRB) cytotoxicity assay (see, Skehan P, et al., New colorimetric cytotoxicity assay for anticancer-drug screening. J. Natl. Cancer Inst. 82:1107-1112 (1990)) was used to determine the cytotoxic effects of BNP1350, BNP10120 or BNP10121 on cell growth in vitro. Briefly, after the medium was aspirated from individual plate wells, trichloroacetic acid (100 μL of 10.0% solution) was added to each well, and the plates were incubated at 4° C. for at least 1 hour. The plates were washed five-times with water using an automated microplate washer (Model EL 404, Bio-Tek Instruments), SRB solution (100 μL of 0.4 grams SRB dissolved in 100 mL 1.0 percent acetic acid) was added, and plates remained at room temperature for 15 minutes. […]

[2] = test system: doxorubicin-resistant human ovarian cancer cells (A2780/DX5); assay: Sulforhodamine B (SRB) cytotoxicity assay, A2780/DX5; format: cell-based; settings: for IC50: Homo sapiens, A2780/DX5, 2 hour drug treatments; for IC50 values in words (inhibition of cell growth): doxorubicin resistant (A2780/DX5) ovarian cancer cells
From the text: as §1, §2, §3, §4, §5, §6, §7, §8

[3] = test system: PHA-stimulated lymphocytes and normal glial cells; settings: 90% D2O; cited from earlier work
[4] = test system: malignant melanoma and carcinoma cells (colon carcinoma, glioblastoma, and small lung cell cancer cells); settings: cited from earlier work
[5] = clinical trial; cited from earlier work
[6] = average of Test 1 and Test 2, read-out: IC50 Average

`[2H]C1([2H])c2c(nc3ccccc3c2CC[Si](C)(C)C)-c2cc3c(c(=O)n21)COC(=O)[C@]3(O)CC` [BNP10120, (4S)-12,12-Dideutero-4-ethyl-4-hydroxy-11-[2-(trimethylsilyl)ethyl]-1H-pyrano[3′,4′:6,7]indolizino[1,2-b]quinoline-3,14(4H,12H)-dione] showed an IC50 [1, 6] of 2.6 nM, an IC50 ([1]; read-out: IC50 Test 1) of 3.5 nM and an IC50 ([1]; read-out: IC50 Test 2) of 1.6 nM. For the same compound, the “IC50 values in words (inhibition of cell growth)” value [1] was “nanomolar”, the IC50 [2, 6] was 8.5 nM and the IC50 ([2]; read-out: IC50 Test 1) was 9.9 nM. The IC50 ([2]; read-out: IC50 Test 2) was 7.1 nM and the “IC50 values in words (inhibition of cell growth)” value [2] was “nanomolar”.

With `[2H]C([2H])(c1c2c(nc3ccccc13)-c1cc3c(c(=O)n1C2)COC(=O)[C@]3(O)CC)C([2H])([2H])[Si](C)(C)C` [BNP10121, (S)-4-Ethyl-4-hydroxy-11-[1,1,2,2-tetradeutero-2-(trimethylsilyl)ethyl]-1H-pyrano[3′,4′:6,7]indolizino[1,2-b]quinoline-3,14(4H,12H)-dione] the IC50 [1, 6] was 6.1 nM, the IC50 ([1]; read-out: IC50 Test 1) was 6.1 nM and the IC50 ([1]; read-out: IC50 Test 2) was 6 nM. The “IC50 values in words (inhibition of cell growth)” value [1] was “nanomolar”, the IC50 [2, 6] was 11.7 nM and the IC50 ([2]; read-out: IC50 Test 1) was 12 nM. The IC50 ([2]; read-out: IC50 Test 2) was 11.3 nM and the “IC50 values in words (inhibition of cell growth)” value [2] was “nanomolar”.

In the case of `[2H]O[2H]` [D2O], the cells killed [3] is given as 5%, the cells killed ([4]; 90% D2O, malignant melanoma and carcinoma cells) is given as 70% and the “viable fraction of malignant cells” value ([4]; 9 days of treatment with 90% D2O) is given as “about 0.1%”.

In the case of `[2H]C([2H])([2H])Oc1ccc(C(CN(C([2H])([2H])[2H])C([2H])([2H])[2H])C2(O)CCCCC2)cc1` (centres unmarked) [SD-254], the “rate of metabolism relative to Effexor” value [5] is listed as “half as fast” and the “time after which pharmacologically-effective levels of the drug were maintained” value [5] is listed as 24 hours.

With `CC[C@@]1(O)C(=O)OCc2c1cc1n(c2=O)Cc2c-1nc1ccccc1c2CC[Si](C)(C)C` [BNP1350, (4S)-4-Ethyl-4-hydroxy-11-[2-(trimethylsilyl)ethyl]-1H-pyrano[3′,4′:6,7]indolizino[1,2-b]quinoline-3,14(4H,12H)-dione, reference compound] the IC50 [1, 6] was 1.9 nM, the IC50 ([1]; read-out: IC50 Test 1) was 1.9 nM and the IC50 ([1]; read-out: IC50 Test 2) was 1.8 nM. The “IC50 values in words (inhibition of cell growth)” value [1] was “nanomolar”, the IC50 [2, 6] was 7.3 nM and the IC50 ([2]; read-out: IC50 Test 1) was 7.7 nM. The IC50 ([2]; read-out: IC50 Test 2) was 6.9 nM and the “IC50 values in words (inhibition of cell growth)” value [2] was “nanomolar”.
